According to patent publication US8853490B2 (priority 2010, dated 2014):
Like-named read-outs stand apart in the source and are kept apart here.

Columns and labels:
[1] = system: Diplodia maydis (DMA; isolate Warren-IN-96); assay type: cell-based
[2] = system: Colletotrichum graminicola (CGR; isolate Carroll-IA-99); assay type: cell-based

Substance	In vitro antifungal activity (IC50) against D. maydis (DMA) ([1]; high salt conditions)	In vitro antifungal activity (IC50) against D. maydis (DMA) ([1]; low salt conditions)	In vitro antifungal activity (IC50) against C. graminicola (CGR) ([2]; high salt conditions)	In vitro antifungal activity (IC50) against C. graminicola (CGR) ([2]; low salt conditions)
LB-5220 (ps 1B4): LBNL variant generated through gene shuffling of the LB-5220 mature peptide coding sequence (LKYTGTCTRKNNQCKYRGQNNRDTFVKCPTFANKRCTRDGAPCSFDSYSRAVTCD; Synthetic peptide LB-5220 (ps-1B4))	12 ppm	0.1 ppm	–	–
LB-9827-3A-11E4: LBNL variant generated through gene shuffling of the LB-9827-1 mature peptide coding sequence (LSKYGGECSRKHNTCTYKKGGKNQIVNCPTAANKRCKTDRHHCEYDEYHRRVDCQTPV; LB-9827-3A-11E4)	0.94 ppm	–	1.25 ppm	–
LB-9827-3B-26G11: LBNL variant generated through gene shuffling of the LB-9827-1 mature peptide coding sequence (LSKYGGECSKEHNTCKYLKGGKNQVVACPKAANKKCKTDRHHCEYDEYHKTVDCQTPV; Synthetic peptide LB-9827-3B-26G11)	–	–	0.63 ppm	–
LB-5220 (r2 5G7): LBNL variant generated through gene shuffling of the LB-5220 mature peptide coding sequence (LKYTGTCRRANNQCKYKGQNNRDTFVKCPTFANKKCTRDGAKCSFDSYSRAVTCD; Synthetic peptide LB-5220 (r2-5G7))	12 ppm	0.1 ppm	6 ppm	–
LB-9827-3B-25F2: LBNL variant generated through gene shuffling of the LB-9827-1 mature peptide coding sequence (LSKYGGECSREHNTCTYLKGGKNQVVACGSAANKKCKRDRHHCEYDDYHKTVDCQTPV; Synthetic peptide LB-9827-3B-25F2)	7.5 ppm	–	1.25 ppm	–
LB-9827-3B-25G5: LBNL variant generated through gene shuffling of the LB-9827-1 mature peptide coding sequence (LSKYGGECSRAHNTCTYRKGGKNQVVKCGTAANKKCKSDRHHCEYDDYHKRVDCQTPV; Synthetic peptide LB-9827-3B-25G5)	0.47 ppm	–	1.25 ppm	–
LB-9827-3B-21E10: LBNL variant generated through gene shuffling of the LB-9827-1 mature peptide coding sequence (LSKYGGECSRAHNTCTYRKGGKNQVVNCPSAANKKCKSDRHHCEYDEYHKRVDCQTPV; Synthetic peptide LB-9827-3B-21E10)	30 ppm	–	1.25 ppm	–
LB-5220 (r2 6F2): LBNL variant generated through gene shuffling of the LB-5220 mature peptide coding sequence (LKYTGTCRRANNQCKYKGQNNRDTFVKCPTFANKKCTRDGEKCSFDSYSRAVTCD; LB-5220 (r2-6F2))	6 ppm	0.1 ppm	12 ppm	0.4 ppm
